The text below walks through data of patent publication US8729053B2, “Nuclear factor kappa B pathway inhibitor composition and use of same” (The United States of America, as represented by the …, priority 2008, dated 2014).

“Also recorded” adds a separate entry of the source. Where a name gives a salt, the structure may show the parent alone.

The test system of test [1] is IκBα. Description: Immunoblot of phosphorylated IκBα in HEK293 cells. Type of test: cell-based. The procedure: (§1) To measure endogenous level of several proteins in response to TPA induction and compound I, HEK293 cells were lysed with RIPA buffer (10 mM Tris-HCl pH 7.5, 1 mM EDTA, 0.1% sodium dodecyl sulfate, 0.1% deoxycholate, and protease inhibitor). Whole cell extracts were subjected to immunoblot analysis with the following antibodies: p65 (F-6), p50 (E-10), p52 (C-5), RelB (C-19), IκBα (C-21), PCNA (F-2) were obtained from Santa Cruz Biotechnology (Santa Cruz, Calif.). IKKα, IKKβ, IKKγ, phospho-IκBα, phospho-IKKα/β, phospho-IKKγ, pohospho-Stat3 (Tyr 705 and Ser 727), phospho-p65 (Ser536 and Ser276), phospho-p44/42, phospho-JNKs were purchased from Cell Signaling (Danvers, Mass.), and α-tubulin from Sigma (St. Louis, Mo.). Nuclear and cytoplasmic extracts were prepared with HEK293 cells by NE-PER Nuclear and Cytoplasmic Extraction Reagents (Pierce Biotechnology, Rockford, Ill.) according to the manufacturer's protocol.
To characterize the activity of compound I in targeting events upstream of NFκB, endogenous levels of kinases involved in NFκB activation were examined by immunoblot analysis. The well-established upstream regulators of NFκB activation are IKKα, IKKβ, and IκBα. […] Moreover, the phosphorylation of IκBα was inhibited even at 1.1 μM showing dose-dependent decrease by compound I pretreatment. […] In addition, compound I inhibits TNFα-induced phosphorylation of IKKα/β and IκBα at 1 hour. IKKβ from IKKα was not able to be distinguished in this analysis with antibodies which detect phosphorylated IKKα at Ser176/180 and IKKβ at Ser177/181. TPA-induced phosphorylation of IκBα is mediated primarily through IKKβ catalytic activity; thus compound I represses phosphorylation of IKKβ and in an embodiment both IKKβ and IKKα. […] The total protein levels of IKKα/β, IKKγ, and IκBα were not affected. Thus, upstream activation events rather than transcription factor binding to DNA are targeted by compound I when it inhibits NFκB induction.

Test [2] deals with JNK. Description: Immunoblot of TPA-induced JNK phosphorylation. Type of test: cell-based. The note with it: 17.0 μM and 8.5 μM pretreatment. The procedure:
as §1
(§2) The selectivity of compound I was evaluated by measuring phosphorylation of proteins involved in the AP-1 induction pathway. AP-1 dependent transcription can be activated by MAP Kinases JNK, ERK 1/2 (p44/42). […] At these concentrations compound I, in contrast, completely repressed major regulators in the NFκB activation pathway. JNKs are activated by a variety of environmental stresses responsible for AP-1 activation through c-Jun phosphorylation. […]
On the technique in general: In western blotting, separated proteins are transferred to a membrane and probed.

In test [3] the test system is STAT3. Description: Immunoblot of TPA-inducible STAT3 phosphorylation. The class given is cell-based. The note with it: 17.0 μM and 8.5 μM pretreatment. The procedure: as §1, §2
Test [4] deals with T1, IKKβ (Homo sapiens, UniProt O14920).
T1 construct: purchased Calbiochem
T1 sequence (O14920 1-756): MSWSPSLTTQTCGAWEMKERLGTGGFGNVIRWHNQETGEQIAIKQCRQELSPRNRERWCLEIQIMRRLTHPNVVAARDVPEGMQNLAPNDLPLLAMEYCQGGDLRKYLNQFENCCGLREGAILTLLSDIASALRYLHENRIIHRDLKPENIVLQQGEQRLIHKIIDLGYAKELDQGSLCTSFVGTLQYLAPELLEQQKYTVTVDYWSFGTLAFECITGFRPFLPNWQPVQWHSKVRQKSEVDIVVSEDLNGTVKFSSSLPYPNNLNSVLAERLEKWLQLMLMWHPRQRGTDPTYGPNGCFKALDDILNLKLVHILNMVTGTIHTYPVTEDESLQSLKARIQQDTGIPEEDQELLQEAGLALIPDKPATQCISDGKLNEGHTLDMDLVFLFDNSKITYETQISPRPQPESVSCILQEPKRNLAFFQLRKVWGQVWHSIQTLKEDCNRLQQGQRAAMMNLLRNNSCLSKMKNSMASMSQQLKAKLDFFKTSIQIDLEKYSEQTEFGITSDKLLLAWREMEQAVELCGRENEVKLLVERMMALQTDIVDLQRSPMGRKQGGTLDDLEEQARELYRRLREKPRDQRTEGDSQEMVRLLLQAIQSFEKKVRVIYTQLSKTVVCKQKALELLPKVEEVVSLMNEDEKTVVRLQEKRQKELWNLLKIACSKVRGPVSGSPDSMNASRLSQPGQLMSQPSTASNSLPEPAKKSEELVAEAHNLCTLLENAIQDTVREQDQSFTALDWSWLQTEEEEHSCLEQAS
Description: Off-chip incubation mobility-shift kinase assay, IKKβ. Type of test: biochemical. The procedure: In an attempt to determine whether compound I interferes with ATP binding to the catalytic site, the activity of compound I was measured with fully activated, phosphorylated IKKα or IKKβ. […] However, whether this compound interacts outside of the ATP binding pocket of IKK as an ATP non-competitive inhibitor similar to BMS-345541 is unknown. […] Luciferase activities with TPA induction alone were set at 100% and the relative activities with TPA in the presence of compounds are shown.

Test [5] deals with estrogen receptor. Description: ERE promoter luciferase reporter assay in ER-positive breast cancer cells. The class given is cell-based. The procedure: In order to evaluate the potential therapeutic activity of the compound, tests for the biological activity of compound I were performed. The compound is non-toxic to MCF-7, T47D, and MDA-MB-231 breast cancer cells as estimated by XTT assay at 10 μM. To determine the effects of compound I on invasion by breast cancer cell lines, a matrigel invasion assay was used. The levels of phosphorylated IκBα were confirmed in TPA treated ER-positive (MCF-7 and T47D) and ER-negative (MDA-MB-231) breast cancer cell lines and compared the levels to those after pretreatment with compound I. Although induced levels of phosphorylated IκBα varied with the cell line, IκBα phosphorylation was eliminated by compound I treatment in all three breast cancer cell lines. Compound I also produced no effect on the estrogen receptor activity in the ER-positive breast cancer cells using ERE promoter luciferase reporter assay. Invasion capacity of breast cancer cells was increased by TPA stimulation compared to DMSO treated vehicle control. […] Following anchorage-independent colony induction in TPA-treated cells without or with compound I, colonies were lysed and measured with CyQuant GR Dye to detect DNA by fluorescence plate reader as a measure of colony count. Total transformed colony numbers were calculated from RFU and cell dose curve of JB6 cells. […]
On the technique in general: In a reporter assay the amount or activity of a reporter protein is the signal.

In test [6] the test system is cell proliferation. In words: Cell proliferation. The class given is cell-based.

For the compound `Cc1cc(N)ccc1N=Nc1ccc(S(=O)(=O)CCOS(=O)(=O)O)cc1` [compound I, 2-(4-((4-amino-2-methylphenyl)diazenyl)phenylsulfonyl)ethyl hydrogen sulfate], the “TPA-induced phosphorylation of IκBα” value is “inhibited; also recorded: reduced” in test [1] (1.1 μM); “almost completely blocked; also recorded: complete blocking” in test [1] (17.0 and 8.5 μM pretreatment, HEK293); “inhibited” in test [1] (at 6 and 12 hours). Moreover, the “Total protein levels of IKKα/β, IKKγ, and IκBα” value in test [1] (HEK293 immunoblot) is recorded as “not affected”. Besides, the “TNFα-induced phosphorylation of IκBα” value in test [1] (at 1 hour) is reported as “inhibits”. In test [2], the “TPA-induced phosphorylation of endogenous JNK” value is on record as “no repression”. Moreover, the “TPA inducible phosphorylation of STAT3” value in test [3] is on record as “no repression”. The “Binding to the ATP binding pocket of IKKβ” value in test [4] was “no activity”. Besides, the “Inhibition of IKKβ activity, phosphorylation of a peptide substrate” value in test [4] (fully activated, phosphorylated IKKβ, 1.25, 2.50, 5.00, and 10.00 μM) was “does not inhibit”. In test [5], the “Effect on estrogen receptor activity” value was “no effect”. Also, the “Suppression of cell proliferation” value in test [6] is “does not suppress”.
